The values below come from paper PMC8421526, “Cell-Penetrating Peptides Predicted From CASC3, AKIP1, and AHRR Proteins” (Frontiers in Pharmacology, 2021).

The subject of series [1] is U87, PC3, and HeLa cells. Description: Internalization of FAM-labelled peptides, fluorescence from cell lysate. Type of series: cell-based, human. The note with it: FAM-labelled peptide 10 µM, 2 h, serum free media, lysis 0.1% Triton X100; cannot distinguish internalized from membrane-attached peptide; Figure 1A. How it is done: U87 (human glioblastoma like cells) and HeLa (human cervical cancer) were maintained at 37°C and 5% CO2 in Dulbecco’s Modified Eagle’s Medium (DMEM) (Sigma, Germany). PC3 (human prostate cancer) and CHO cells were maintained in Ham´S F12 media and incubated at 37°C and 5% CO2. Cell media were supplemented with 0.1 mM non-essential amino acids, 1.0 mM sodium pyruvate, 10% fetal bovine serum (FBS) (Sigma, Germany), 100°U ml^−1 penicillin, and […] streptomycin (Invitrogen, Sweden). U87 cell dishes were treated with 0.1% gelatin solution prior to addition of cells and media. For assessing the internalization of the peptides from the cell lysate, 50,000 cells were seeded on a 24-well plate 1 day prior to the experiment. On the experiment day, cell media was changed to 450 µl of fresh serum free media followed by the addition of 50 µl of fluorescently labelled peptide solution. The peptide’s final concentration on the cells was 10 µM. The cells were incubated with the peptides for 2 h, following washes with PBS buffer and cell lysis with 100 µl of 0.1% Triton X100. The cell lysate was transferred to black 96-well plate and the fluorescence signal from the fluorescently labelled peptide was measured.

For a further series, the system named is HeLa cells. The experiment in a line: Internalization of fluorescently labelled peptide, confocal microscopy of live cells. Type of series: cell-based, human. To be noted: 4 h; for Fluorescence signal from the peptide in confocal images: fluorescently labelled peptide 10 µM, Hoechst counterstain, 20x; for Entry into cells in confocal images: fluorescently labelled peptide 20 µM, Supplementary Figure S2. The method, then: 48 h prior to the addition of […], 20,000 HeLa cells were seeded on 8-well Nunc™ Lab-Tek™ (Thermo Scientific™, United States) chamber plates. Before the addition of the peptide solutions media was changed to 225 µl of fresh media. […] After 4 h incubation, the cells were washed with PBS and counterstained with Hoechst 33342. Confocal images were acquired from live cells with Zeiss LSM710 (Carl Zeiss AG, Germany). For detecting the fluorescent label from the peptide, 488 nm laser with […] was used, and for detecting nuclei 405 nm laser with 416–503 filter was used. The images were taken with 20x magnification.

The test system of series [2] is U87 cells. To be noted: for 2-Way ANOVA, MTS assay, treatment group compared to untreated: Table S4 C; for Proliferation in MTS assay compared to the CPP Tat treated group: same concentration of Tat, statistically significant. The method, then:
(§1) The cell proliferation was analyzed with the CellTiter 96® Aqueous Non-Radioactive Cell Proliferation Assay (MTS) (Promega Biotech AB, Sweden) according to the manufacturer’s instructions. For this, 10,000 U87 or CHO cells were seeded 1 day prior to the experiment on transparent 96-well plates. On the experiment day, media was replaced with 90 μl of fresh serum free media. Peptides in the concentration range from 0 to 32 µM were added to the cells. The cells were incubated with the peptides for 20 h or 46 h, following the addition of the reagent and further incubation to reach 24 h or 48 h timepoints. The absorbance of the formazan product was measured at 490 nm with Tecan Sunrise microplate absorbance reader (Tecan Group Ltd., Switzerland) and the percentage of viable cells was calculated using the GraphPad Prism software 5.0 (GraphPad Software, CA, United States).

Series [3] concerns U87 cells. The experiment in a line: Total DNA from cell lysate (PicoGreen dsDNA assay). Type of series: cell-based, human. To be noted: 5 µM peptide, 48 h, normalized to untreated cells, average of three wells. How it is done: Total DNA was measured from U87 cells 48 h after the addition of the peptide solutions. After the incubation, the cells were washed with PBS and lysed as described above. From the cell lysate, DNA was quantified with Quant-iT™ PicoGreen™ dsDNA Assay Kit. The results are shown as the average of measurements from three wells and normalized to untreated cells.

Series [4] relates to U87, PC3, and HeLa cells. Description: Percentage of fluorescent cells after peptide treatment, flow cytometry. Type of series: cell-based, human. The note with it: FAM-labelled peptide 10 µM, 2 h, serum free media, trypan blue quenching, Figure 1B; for Percentage of the fluorescent positive cells: threshold set with untreated cells. The method, then:
U87 (human glioblastoma like cells) and HeLa (human cervical cancer) were maintained at 37°C and 5% CO2 in Dulbecco’s Modified Eagle’s Medium (DMEM) (Sigma, Germany). PC3 (human prostate cancer) and CHO cells were maintained in Ham´S F12 media and incubated at 37°C and 5% CO2. Cell media were supplemented with 0.1 mM non-essential amino acids, 1.0 mM sodium pyruvate, 10% fetal bovine serum (FBS) (Sigma, Germany), 100°U ml^−1 penicillin, and […] streptomycin (Invitrogen, Sweden). U87 cell dishes were treated with 0.1% gelatin solution prior to addition of cells and media. The percentage of the fluorescent cells after peptide treatment was assessed using flow cytometry. For flow cytometry, 10,000 cells were seeded on a 96-well plate 1 day prior to the experiment. On the experiment day, the cell media was changed to 90 µl of fresh serum free media followed by the addition of 10 µl of the fluorescently labelled peptide solution. The peptide’s final concentration on the cells was 10 µM. The cells were incubated with the peptides for 2 h, following washes with PBS buffer. 0.25% Trypsin-EDTA was added to detach the cells from the plate and 200 µl of PBS mixed with 1% FBS was added. Shortly before the analysis, 50 µl of 0.4% trypan blue was added to quench the fluorescence outside the cells. The fluorescence detected from the untreated cells was used to set the signal threshold. The results are shown as the percentage of the fluorescent positive cells.

Another series has as its system CHO cells. The note with it: serum free media, 8 and 32 µM, average of three independent wells. The method, then: as §1
Setting [5] is: Figure 3 24 h, peptide added 0.5 µM.
Where [6] appears, read: Figure 3 24 h, peptide added 2 µM.
Setting [7] is: Figure 3 24 h, peptide added 8 µM.
The mark [8] stands for this setting: Figure 3 24 h, peptide added 32 µM.
Setting [9] is: Figure 3 48 h, peptide added 0.5 µM.
Setting [10] is: Figure 3 48 h, peptide added 2 µM.
The mark [11] stands for this setting: Figure 3 48 h, peptide added 8 µM.
Where [12] appears, read: Figure 3 48 h, peptide added 32 µM.

Entries after “also recorded” stand apart in the source; their conditions may differ. Read-outs that look alike come from different tables or passages of the source.

In the case of “RKRRESASSSSSVKKAKKP [DMAP1_459-467, predicted CPP from DNA methyltransferase 1-associated protein 1, C-terminally amidated]”, in the series with U87, PC3, and HeLa cells [1], the “Fluorescence signal from the cell lysate (internalization)” value (“Fluorescence signal from the cell lysate” below) is listed as “above control”.

In the case of “GRKKRRQRRRPPQ [Tat48-60, reference compound]”, the “Fluorescence signal from the peptide in confocal images” value (“Fluorescence signal from the peptide” for short) with HeLa cells is “fluorescence signal from the peptides can be seen in the cells”. Besides, the “Entry into cells in confocal images” value in the series with HeLa cells is reported as “able to enter into almost all the cells”. The “2-Way ANOVA, MTS assay, treatment group compared to untreated” value (shortened to “2-Way ANOVA … compared to untreated”) in the series on U87 cells [2] (setting [5]) is given as “ns (P > 0.05 – ns)”; in the series with U87 cells [2] (setting [6]), “ns (P > 0.05 – ns)”; in the series on U87 cells [2] (setting [7]) it was “ns (P > 0.05 – ns)”; in the series with U87 cells [2] (setting [8]), “* (p < 0.05 - *)”; in the series on U87 cells [2] (setting [9]), “ns (P > 0.05 – ns)”; with U87 cells [2] (setting [10]), “ns (P > 0.05 – ns)”. In addition, the “2-Way ANOVA … compared to untreated” value with U87 cells [2] (setting [11]) is on record as “* (p < 0.05 - *)”; in the series on U87 cells [2] (setting [12]), “*** (p < 0.001 - ***)”. Besides, the “Toxicity in MTS assay” value in the series on U87 cells [2] (U87 cells, serum free media, 0-32 µM, after 24 or 48 h) is recorded as “did not show a considerable amount of toxicity”.

In the case of VLERAKRRAV [AKIP1_27-37], in the series with HeLa cells, the “Fluorescence signal from the peptide” value was “fluorescence signal from the peptides can be seen in the cells”. Besides, the “2-Way ANOVA … compared to untreated” value is given as “ns (P > 0.05 – ns)” in the series on U87 cells [2] (setting [5]); “* (p < 0.05 - *)” in the series on U87 cells [2] (setting [6]); “* (p < 0.05 - *)” in the series with U87 cells [2] (setting [7]); “* (p < 0.05 - *)” in the series on U87 cells [2] (setting [8]); “ns (P > 0.05 – ns)” in the series with U87 cells [2] (setting [9]); “* (p < 0.05 - *)” with U87 cells [2] (setting [10]). Also, the “2-Way ANOVA … compared to untreated” value was “* (p < 0.05 - *)” in the series on U87 cells [2] (setting [11]) and “** (p < 0.01 - **)” in the series with U87 cells [2] (setting [12]). In addition, the “Amount of total DNA” value in the series with U87 cells [3] is given as “decreased amount of total DNA”. Further, the “Fluorescence signal from the cell lysate” value with U87, PC3, and HeLa cells [1] was “highest fluorescence intensities”. The “Percentage of the fluorescent positive cells” value (“Percentage” for short) with U87, PC3, and HeLa cells [4] is recorded as “more than 10%”.

As to “VAAKKRKKDML [FBXO32_59-69, predicted CPP from F-box only protein 32, C-terminally amidated]”, the “Fluorescent signal in flow cytometry (detectable or not)” value in the series on U87, PC3, and HeLa cells [4] is “all the peptides except the CCNL2, ING4, and FBXO32 derived peptides had a detectable signal”.

Take “GECTYAGRKRRRPLQK [AHRR8-24, predicted CPP from Aryl hydrocarbon receptor repressor, C-terminally amidated]”: the “Fluorescence signal from the peptide” value with HeLa cells is “fluorescence signal from the peptides can be seen in the cells”. Further, the “2-Way ANOVA … compared to untreated” value in the series on U87 cells [2] (setting [5]) is recorded as “ns (P > 0.05 – ns)”; with U87 cells [2] (setting [6]) it was “* (p < 0.05 - *)”; with U87 cells [2] (setting [7]), “* (p < 0.05 - *)”; in the series on U87 cells [2] (setting [8]), “** (p < 0.01 - **)”. In addition, the “Proliferation in MTS assay compared to the CPP Tat treated group” value with U87 cells [2] (U87 cells, 0.5, 2, and 8 µM, 48 h) is “decrease in the proliferation”. The “Viability in MTS assay” value with U87 cells [2] (U87 cells, serum free media, after 48 h) is “decreased viability”. Also, the “Fluorescence signal from the cell lysate” value with U87, PC3, and HeLa cells [1] is reported as “highest fluorescence intensities”. The “Percentage” value with U87, PC3, and HeLa cells [4] is reported as “more than 10%”.

“PDDIKPRRIRKPRY [CASC3_251-264, predicted CPP from CASC3, C-terminally amidated]”: the “Fluorescence signal from the peptide” value in the series with HeLa cells was “fluorescence signal from the peptides can be seen in the cells; also recorded: strongest and well dispersed signal”. Further, the “Entry into cells in confocal images” value in the series with HeLa cells is on record as “able to enter into almost all the cells”. Besides, the “2-Way ANOVA … compared to untreated” value was “** (p < 0.01 - **)” in the series on U87 cells [2] (setting [5]); “** (p < 0.01 - **)” with U87 cells [2] (setting [6]); “*** (p < 0.001 - ***)” in the series on U87 cells [2] (setting [7]); “*** (p < 0.001 - ***)” with U87 cells [2] (setting [8]); “* (p < 0.05 - *)” with U87 cells [2] (setting [9]); “* (p < 0.05 - *)” with U87 cells [2] (setting [10]). Besides, the “2-Way ANOVA … compared to untreated” value with U87 cells [2] (setting [11]) is “* (p < 0.05 - *)”; in the series on U87 cells [2] (setting [12]), “*** (p < 0.001 - ***)”. In addition, the “Proliferation in MTS assay compared to the CPP Tat treated group” value in the series with U87 cells [2] (U87 cells, 0.5 µM, 24 h) is “decrease in the proliferation”. Further, the “Cell proliferation in MTS assay” value was “proliferation decreased” in the series on U87 cells [2] (U87 cells, serum free media, 8 and 32 µM); “proliferation decreased” with CHO cells. In the series with U87, PC3, and HeLa cells [1], the “Fluorescence signal from the cell lysate” value is recorded as “highest fluorescence intensities”. Further, the “Percentage” value in the series with U87, PC3, and HeLa cells [4] was “more than 10%”.

Consider “NTKRRLEGAKKA [CCNL2_354-365, predicted CPP from Cyclin L2, C-terminally amidated]”, for which, in the series on U87, PC3, and HeLa cells [4], the “Fluorescent signal in flow cytometry (detectable or not)” value was “all the peptides except the CCNL2, ING4, and FBXO32 derived peptides had a detectable signal”.

For the sequence TQKEKKAARARSK [ING4_134-145], the “Fluorescent signal in flow cytometry (detectable or not)” value with U87, PC3, and HeLa cells [4] is “all the peptides except the CCNL2, ING4, and FBXO32 derived peptides had a detectable signal”.
